From ChEMBL document CHEMBL1132959, “Design of potent dicyclic (1-5/4-10) gonadotropin releasing hormone (GnRH) antagonists” (J Med Chem, 2000)

Experiments:
[1] = species on record: Rattus norvegicus; assay: Antiovulatory potency at 5 ug/rat expressed as rats ovulating by total no. of rats (1/7); assay type: functional
[2] = species on record: Rattus norvegicus; assay: Antiovulatory potency at 10 ug/rat expressed as rats ovulating by total no. of rats (0/6); assay type: functional
[3] = species on record: Rattus norvegicus; assay: Antiovulatory potency at 2.5 ug/rat expressed as rats ovulating by total no. of rats (2/8); assay type: functional
[4] = species on record: Rattus norvegicus; assay: Antiovulatory potency at 5 ug/rat expressed as rats ovulating by total no. of rats (0/5); assay type: functional
[5] = species on record: Rattus norvegicus; assay: Antiovulatory potency at 2.5 ug/rat expressed as rats ovulating by total no. of rats (4/16); assay type: functional
[6] = species on record: Rattus norvegicus; assay: Antiovulatory potency at 1 ug/rat expressed as rats ovulating by total no. of rats (5/7); assay type: functional
[7] = species on record: Rattus norvegicus; assay: Antiovulatory potency at 250 ug/rat expressed as rats ovulating by total no. of rats (0/5); assay type: functional
[8] = species on record: Rattus norvegicus; assay: Antiovulatory potency at 100 ug/rat expressed as rats ovulating by total no. of rats (5/5); assay type: functional
[9] = species on record: Rattus norvegicus; assay: Antiovulatory potency at 500 ug/rat expressed as rats ovulating by total no. of rats (5/7); assay type: functional
[10] = biological target: T1, Gonadotropin-releasing hormone receptor (Rattus norvegicus, UniProt P30969); assay: Affinity for rat gonadotrophin releasing hormone (GnRH) receptor using HEK293 cells transfected with rat Gonadotropin-releasing hormone receptor; assay type: cell-based; settings: hek293
T1 sequence (P30969 whole entry): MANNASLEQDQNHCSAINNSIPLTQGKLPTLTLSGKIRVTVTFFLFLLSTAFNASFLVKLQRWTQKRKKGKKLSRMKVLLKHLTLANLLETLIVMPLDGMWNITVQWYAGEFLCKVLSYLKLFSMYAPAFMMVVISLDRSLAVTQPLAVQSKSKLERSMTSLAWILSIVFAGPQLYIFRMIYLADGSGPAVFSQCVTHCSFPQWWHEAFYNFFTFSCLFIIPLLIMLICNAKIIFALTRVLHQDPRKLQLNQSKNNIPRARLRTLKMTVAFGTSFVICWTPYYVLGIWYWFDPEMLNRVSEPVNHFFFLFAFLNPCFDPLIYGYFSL

[11] = species on record: Rattus norvegicus; assay: Antiovulatory potency at 50 ug/rat expressed as rats ovulating by total no. of rats (0/5); assay type: functional
[12] = species on record: Rattus norvegicus; assay: Antiovulatory potency at 10 ug/rat expressed as rats ovulating by total no. of rats (5/5); assay type: functional
[13] = species on record: Rattus norvegicus; assay: Antiovulatory potency at 25 ug/rat expressed as rats ovulating by total no. of rats (3/7); assay type: functional

Work on `CC(=O)N[C@@H]1CCC(=O)NCC(=O)NCC[C@H]2NC(=O)[C@@H](CC(=O)NC[C@H](C(N)=O)NC(=O)[C@H]3CCCN3C(=O)[C@H](CCCN=C(N)N)NC(=O)[C@@H](CC(C)C)NC(=O)[C@@H](Cc3ccc4ccccc4c3)NC2=O)NC(=O)[C@@H](Cc2c[nH]c3ccccc23)NC(=O)[C@H](Cc2ccc(Cl)cc2)NC1=O` yielded an Ovulating rats [1] of 1, an Ovulating rats [2] of 0 and an Ovulating rats [3] of 2.
Work on `CC(=O)N[C@H]1CC(=O)NCC(=O)NCC[C@@H]2NC(=O)[C@H](CC(=O)NC[C@@H](C(N)=O)NC(=O)[C@@H]3CCCN3C(=O)[C@H](CCCN=C(N)N)NC(=O)[C@H](CC(C)C)NC(=O)[C@@H](Cc3ccc4ccccc4c3)NC2=O)NC(=O)[C@@H](Cc2c[nH]c3ccccc23)NC(=O)[C@@H](Cc2ccc(Cl)cc2)NC1=O` yielded an Ovulating rats [4] of 0, an Ovulating rats [5] of 4 and an Ovulating rats [6] of 5.
`CC(=O)N[C@H](Cc1ccc2ccccc2c1)C(=O)N[C@H](Cc1ccc(Cl)cc1)C(=O)N[C@@H]1CC(=O)NCCC[C@@H](C(=O)N2CCC[C@H]2C(=O)N[C@H](C)C(N)=O)NC(=O)[C@H](CC(C)C)NC(=O)[C@@H](Cc2ccc3ccccc3c2)NC(=O)[C@H](CCCN=C(N)N)NC(=O)[C@H](C)NC1=O` gave an Ovulating rats [7] of 0 and an Ovulating rats [8] of 5.
`CC(=O)N[C@H](Cc1ccc2ccccc2c1)C(=O)N[C@H]1CSSC[C@@H]2NC(=O)[C@H](Cc3ccc(O)cc3)NC(=O)[C@H](CC(=O)NC[C@@H](C(N)=O)NC(=O)[C@@H]3CCCN3C(=O)[C@H](CCCN=C(N)N)NC(=O)[C@H](CC(C)C)NC2=O)NC(=O)[C@@H](Cc2c[nH]c3ccccc23)NC1=O` was tested, and the Ovulating rats [9] was 5 and the Ki [10] was 13 nM.
Molecule `CC(=O)N[C@H](Cc1ccc2ccccc2c1)C(=O)N[C@H](Cc1ccc(Cl)cc1)C(=O)N[C@@H]1CC(=O)NCCCC[C@@H](C(=O)N2CCC[C@H]2C(=O)N[C@H](C)C(N)=O)NC(=O)[C@H](CC(C)C)NC(=O)[C@@H](Cc2ccc3ccccc3c2)NC(=O)[C@H](CCCN=C(N)N)NC(=O)[C@H](C)NC1=O` has an Ovulating rats [11] of 0, an Ovulating rats [12] of 5 and an Ovulating rats [13] of 3.
